Key:
[1] = test system: rats dosed with morphine; test: Rat model of opioid-induced bowel dysfunction (morphine-delayed gastric emptying and small intestinal transit); type: in vivo; conditions: morphine 3 mg/kg s.c.
Source text: Opioid analgesics, such as morphine, are well known to delay gastrointestinal transit, which is a noted side effect for this class of drugs. (Greenwood-van Meerveld, B.; Gardner, C. J.; Little, P. J.; Hicks, G. A.; DeHaven-Hudkins, D. L. Preclinical studies of opioids and opioid antagonists on gastrointestinal function. Neurogastroenterol. Motil. 2004, 16, 46-53.) The clinical term for this syndrome is opioid-induced bowel dysfunction (OBD). The aim of this study was to determine whether test compounds can effectively reverse morphine-induced delayed gastric emptying and small intestinal transit in a rat model of opioid-induced bowel dysfunction.
• 1. Rats (male, Sprague-Dawley, 250-300 g, N=6-7/gp) were implanted with jugular vein catheters to accommodate dosing of test articles. • 2. Overnight-fasted rats were administered morphine by sub-cutaneous injection (3 mg/kg). • 3. After 60 minutes, rats were dosed (i.v. bolus) with vehicle, test compound (0.30, 1.0 mg/kg) or GHRP-6 (0.02 mg/kg) followed by intragastric gavage of ^99mTc methylcellulose (2%) meal. • 4. After 15 minutes, the rats were euthanized and the stomach and consecutive 10 cm segments of the intestine are isolated. Radioactivity (^99mTc) in each tissue isolate is measured as a means of measuring gastric emptying and small intestinal transit. • 5. One-way ANOVA, Dunnet's post-hoc statistical test was applied. • 6.
• 1. […] Methods • 1. Rats (male, Sprague-Dawley, 250-300 g) were implanted with jugular vein catheters to accommodate dosing of test articles. • 2. Overnight-fasted rats were administered morphine (3 mg/kg s.c.). • 3. […] After 15 min, the rats were euthanized and the stomach and consecutive 10 cm segments of the intestine are isolated. Radioactivity (^99mTc) in each tissue isolate was measured as a means of measuring the transit of the meal. • 5. Results

[2] = test system: fasted Wistar rats; test: Gastric emptying of a phenol red-labelled methylcellulose meal in fasted naive rats (model for gastroparesis); type: in vivo, rat; conditions: for increase in gastric emptying relative to the vehicle control group: 15 min after meal; for potency in gastric emptying compared to metoclopramide, based on the different dose levels: dose-dependent, FIG. 2
Description: To examine the effects of compounds of the invention in a model for gastroparesis, compounds were evaluated for possible effects on gastric emptying in fasted rats as described below.
GHRP-6 and test samples were dissolved in vehicle of 9% HPBCD/0.9% NaCl. Immediately following oral administration of methylcellulose (2%) containing phenol red (0.05%) (2 mL/rat), test substances or vehicle (9% HPBCD/0.9% NaCl) were each administered intravenously (i.v.) at a dosing volume of 5 mL/kg.
Test substances were each administered intravenously to a group of 5 O/N-fasted Wistar derived male rats weighing 200±20 g immediately after methylcellulose (2%) containing phenol red (0.05%) was administered orally at 2 mL/animal. The animals were then sacrificed 15 minutes later. The stomach was immediately removed, homogenized in 0.1 N NaOH (5 mL) and centrifuged. Following protein precipitation by 20% trichloroacetic acid (0.5 mL) and re-alkalization of the supernatant with 0.1 N NaOH, total phenol red remaining in the stomach was determined by a colorimetric method at 560 nm. A 30 percent or more (≧30%) increase in gastric emptying, detected as the decrease in phenol red concentration in the stomach relative to the vehicle control group, is considered significant.
• 1. To ascertain data for representative compounds 25 and 298 as prokinetic agents with potent effects on gastric emptying, a model for gastroparesis. Methods • 1. Overnight-fasted rats (male, Wistar, ˜200 g, N=5/group) were given a meal of methylcellulose (2%) by intragastric gavage. The meal was labeled with phenol red (0.05%). • 2. […] Animals were sacrificed 15 minutes later; the stomach was immediately removed and homogenized in 0.1 N NaOH and centrifuged. • 4. Total phenol red remaining in the stomach was quantified by a colorimetric method at 560 nm. • 5. A >30% increase in gastric emptying, detected based on the phenol red concentration in comparison to the control group, is considered significant. Results

[3] = test system: POI rats concurrently dosed with morphine; test: Combination rat model of post-operative ileus and opioid-induced bowel dysfunction; type: in vivo
[4] = GHRP-6 0.02 mg/kg i.v., mean ± sem

CN1CC[C@]23c4c5ccc(O)c4O[C@H]2[C@@H](O)C=C[C@H]3[C@H]1C5 [morphine]
gastric emptying and small intestinal transit ([1]; preliminary study): significantly delayed

GHRP-6
increase in gastric emptying relative to the vehicle control group ([2]; 20 μg/kg i.v.): 40% | Geometric Center [1, 4]: 3.38 ± 0.76 | Intragastric Residue (%) [1, 4]: 0.48 ± 0.10%

CCC(C)[C@@H]1NCCOc2ccccc2CCCNC(=O)[C@@H](Cc2ccc(Cl)cc2)NC(=O)[C@@H](C)N(C)C1=O (stereo partly drawn) [Compound 25]
gastric emptying ([2]; 30 μg/kg): significant gastric emptying | increase in gastric emptying relative to the vehicle control group ([2]; 100 μg/kg i.v.): 39% | potency in gastric emptying compared to metoclopramide, based on the different dose levels [2]: ~100 fold

CCN(CC)CCNC(=O)c1cc(Cl)c(N)cc1OC [metoclopramide, reference compound]
increase in gastric emptying relative to the vehicle control group ([2]; 10 mg/kg i.v.): 41%

C[C@@H]1CN[C@@H](C2CC2)C(=O)N(C)[C@H](C)C(=O)N[C@H](Cc2ccc(F)cc2)C(=O)NCCCc2ccccc2O1 [Compound 298]
potency in gastric emptying compared to metoclopramide, based on the different dose levels [2]: ~100 fold | gastric emptying ([3]; 0.1, 0.3, 1, 3 mg/kg i.v., FIG. 8): significantly accelerates | small intestinal transit ([3]; 0.1, 0.3, 1, 3 mg/kg i.v., FIG. 9): significantly accelerates | lowest dose level effective at restoring GI motility ([3]; combination of POI and OBD): 0.1 mg/kg

— patent publication US8088733B2 (Tranzyme Pharma Inc., priority 2006, dated 2012)
